Molecular target: T1, YGR257Cp (Mtm1p) (Saccharomyces cerevisiae, UniProt P53320)
T1 sequence (P53320 1-366): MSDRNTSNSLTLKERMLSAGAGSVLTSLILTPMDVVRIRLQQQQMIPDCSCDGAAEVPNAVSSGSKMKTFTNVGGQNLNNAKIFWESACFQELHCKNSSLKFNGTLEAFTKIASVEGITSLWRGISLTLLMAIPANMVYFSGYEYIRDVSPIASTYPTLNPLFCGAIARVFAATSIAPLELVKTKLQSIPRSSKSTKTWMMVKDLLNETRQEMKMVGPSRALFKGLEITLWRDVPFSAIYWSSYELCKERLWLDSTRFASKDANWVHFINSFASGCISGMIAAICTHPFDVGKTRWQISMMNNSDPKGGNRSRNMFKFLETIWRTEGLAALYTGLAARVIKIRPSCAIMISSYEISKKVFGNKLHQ
Experiment: intrinsic tryptophan fluorescence quenching titration
Assay type: binding

Kd: 700 ± 20 nM
SMILES: Cc1ncc(COP(=O)(O)O)c(C=O)c1O [pyridoxal 5′-phosphate]

Reference: PMC3876937 (Protein expression and purification, 2013)
